The source of these data is patent US20160045505A1, “COMPOUNDS AND COMPOSITIONS FOR THE TREATMENT OF PARASITIC DISEASES” (NOVARTIS AG, priority 2013, published 2016).

The subject of assay [1] is Leishmania donovani axenic amastigote parasites. The experiment in a line: Leishmania donovani axenic amastigote proliferation assay (Cell TiterGlo luminescence, 2 day incubation). The conditions noted are these: Leishmania donovani, read-out: L. donovani amastigotes EC50. It counts as cell-based.
Assay [2] deals with L. donovani HU3 strain in mouse peritoneal macrophages. Nature of the assay: Assay for proliferation of Leishmania parasites in infected mouse peritoneal macrophages (SybrGreen staining, high-content imaging, 5 days). It counts as cell-based, Leishmania donovani. The conditions noted are these: L. donovani in mouse peritoneal macrophages, read-out: L. donovani Macrophage EC50.
Where [3] appears, read: axenic amastigotes, inhibition of proliferation.
Where [4] appears, read: Leishmania donovani, Peritoneal macrophage, inhibition of proliferation.
[5] abbreviates: Leishmania donovani, Peritoneal macrophage.

Read-outs that look alike come from different tables or passages of the source.

For the molecule `CC(C)OC(=O)Nc1cnc2nc(-c3cc(NC(=O)c4cnc(Cl)[nH]4)ccc3F)cn2c1` [Compound 100], the EC50 is more than 25000 nM in assay [1] (setting [3]) and more than 50000 nM in assay [2] (setting [4]).

`CC(C)OC(=O)Nc1cnc2nc(-c3cc(NC(=O)c4cnc(N)o4)ccc3F)cn2c1` [Compound 94]: the EC50 in assay [1] (setting [3]) was more than 25000 nM; in assay [2] (setting [4]), more than 50000 nM. As to `CC(C)OC(=O)Nc1cnc2nc(-c3cc(NC(=O)c4cnc(Br)s4)ccc3F)cn2c1` [Compound 91], the EC50 in assay [1] (setting [3]) came to 4610 nM; in assay [2] (setting [4]), 24100 nM. `CC(C)OC(=O)Nc1cnc2nc(-c3cc(NC(=O)c4ccc(Cl)o4)ccc3F)cn2c1` [Compound 64, isopropyl (2-(5-(5-chlorofuran-2-carboxamido)-2-fluorophenyl)imidazo[1,2-a]pyrimidin-6-yl)carbamate]: the concentration giving a half-maximal response (EC50) worked out at 161 nM in assay [1] (setting [3]) and 469 nM in assay [2] (setting [4]).

On to `Cc1nc(C)c(C(=O)Nc2ccc(F)c(-c3cn4cc(-c5cnoc5)cnc4n3)c2)o1` [Compound 367], for which the EC50 in assay [1] (setting [3]) was more than 25000 nM; in assay [2] (setting [4]), more than 50000 nM.

As to `CC(C)OC(=O)Nc1cnc2nc(-c3cccc(NC(=O)c4ccco4)c3)cn2c1` [Compound 8], the EC50 in assay [1] (setting [3]) came to 1590 nM; in assay [2] (setting [4]), 4700 nM.

As for `O=C(Nc1ccc(F)c(-c2cn3cc(C(F)(F)F)cnc3n2)c1)N1CC(F)C1` [Compound 587, 3-fluoro-N-(4-fluoro-3-(6-(trifluoromethyl)imidazo[1,2-a]pyrimidin-2-yl)phenyl)azetidine-1-carboxamide], the EC50 in assay [1] (L. donovani axenic amastigotes) came to 73 nM; in assay [2] (setting [5]), 647 nM. As for `CC(C)OC(=O)Nc1cnc2nc(-c3cc(NC(=O)c4ncco4)ccc3F)cn2c1` [Compound 99], the EC50 in assay [1] (setting [3]) is 2980 nM; in assay [2] (setting [4]), 9920 nM. With `CC(C)OC(=O)Nc1cnc2nc(-c3cc(NC(=O)c4cocn4)ccc3F)cn2c1` [Compound 65], the values for the EC50 in assay [1] (setting [3]) and in assay [2] (setting [4]) were 2040 nM and 9130 nM, respectively. As for `CCN(CC)C(=O)Nc1ccc(Cl)c(-c2cn3cc(NC(=O)OC(C)C)cnc3n2)c1` [Compound 274], the EC50 in assay [1] (setting [3]) amounted to 862 nM; in assay [2] (setting [4]), 1900 nM. Take `Cc1ncc(C(=O)Nc2ccc(F)c(-c3cn4cc(NC(=O)OC(C)C)cnc4n3)c2)o1` [Compound 95]: the 50% effective concentration (EC50) turned out to be 69 nM in assay [1] (setting [3]) and 188 nM in assay [2] (setting [4]).

As for `Cc1nc(C)c(C(=O)Nc2ccc(F)c(-c3cn4cc(CC(C)C)cnc4n3)c2)o1` [Compound 590, N-(4-fluoro-3-(6-isobutylimidazo[1,2-a]pyrimidin-2-yl)phenyl)-2,4-dimethyloxazole-5-carboxamide], the EC50 in assay [1] (L. donovani axenic amastigotes) was found to be 24 nM; in assay [2] (setting [5]), 45 nM. In the case of `Cc1nc(C)c(C(=O)Nc2ccc(F)c(-c3cn4cc(CC5OCCO5)cnc4n3)c2)o1` [Compound 614], the EC50 in assay [1] (L. donovani axenic amastigotes) is 389 nM; in assay [2] (setting [5]) it was more than 50000 nM.

With `Cc1nc(C)c(C(=O)Nc2ccc(F)c(-c3cn4cc(C5C6CCCC5C6)cnc4n3)c2)o1` (centres unmarked) [Compound 615], in assay [1] (L. donovani axenic amastigotes), the 50% effective concentration (EC50) is 82 nM.

Take `Cc1nc(C)c(C(=O)Nc2ccc(F)c(-c3cn4cc(NC(=O)OC(C)C)cnc4n3)c2)o1` [Compound 61]: the concentration giving a half-maximal response (EC50) worked out at 245 nM in assay [1] (setting [3]) and 715 nM in assay [2] (setting [4]). As to `CC(C)OC(=O)Nc1cnc2nc(-c3cc(NC(=O)c4cc5cc(Cl)ccc5[nH]4)ccc3F)cn2c1` [Compound 89], the figures for the concentration for a half-maximal effect (EC50) in assay [1] (setting [3]) and in assay [2] (setting [4]) were more than 25000 nM and more than 50000 nM, respectively. Consider `Cc1nc(C)c(C(=O)Nc2ccc(F)c(-c3cn4cc(-c5ncccc5C(F)(F)F)cnc4n3)c2)o1` [Compound 589], for which the EC50 in assay [1] (L. donovani axenic amastigotes) came to 22 nM; in assay [2] (setting [5]), 375 nM. Regarding `CC(C)OC(=O)Nc1cnc2nc(-c3cccc(NC(=O)c4cnccn4)c3)cn2c1` [Compound 7], the results for the EC50 in assay [1] (setting [3]) and in assay [2] (setting [4]) were 2530 nM and 1860 nM, respectively. `CC(C)OC(=O)Nc1cnc2nc(-c3cc([N+](=O)[O-])ccc3F)cn2c1` [Compound 19, isopropyl (2-(2-fluoro-5-nitrophenyl)imidazo[1,2-a]pyrimidin-6-yl)carbamate]: the values for the EC50 in assay [1] (setting [3]) and in assay [2] (setting [4]) were 19100 nM and 46900 nM, respectively.

Consider `CC1=C(C(=O)Nc2cnc3nc(-c4cc(NC(=O)N5CCCC5)ccc4F)cn3c2)OCCO1` [Compound 122], for which the EC50 in assay [1] (setting [3]) was determined as 80 nM. In the case of `O=C(Nc1ccc(F)c(-c2cn3cc(-c4ccnc(C(F)(F)F)c4)cnc3n2)c1)N1CCCC1` [Compound 341], the EC50 in assay [1] (setting [3]) was found to be 2600 nM; in assay [2] (setting [4]), 9430 nM.

On to `CC(C)OC(=O)NCc1cnc2nc(-c3cc(NC(=O)c4ccc(F)o4)ccc3F)cn2c1` [Compound 207], for which the EC50 was 7140 nM in assay [1] (setting [3]) and more than 40300 nM in assay [2] (setting [4]).

Turning to `Cc1nc(C(=O)Nc2ccc(F)c(-c3cn4cc(NC(=O)OC(C)C)cnc4n3)c2)c(C)o1` [Compound 62], the concentration giving a half-maximal response (EC50) in assay [1] (setting [3]) was found to be 2000 nM; in assay [2] (setting [4]) it was 11600 nM. For `CC(C)OC(=O)Nc1cnc2nc(-c3cccc(NC(=O)N4CCCC4)c3)cn2c1` [Compound 5], the half-maximal effective concentration (EC50) in assay [1] (setting [3]) stood at 1080 nM; in assay [2] (setting [4]), 4000 nM.

Turning to `CC(C)OC(=O)Nc1cnc2nc(-c3cc(NC(=O)c4ccc(C#N)o4)ccc3F)cn2c1` [Compound 107], the concentration for a half-maximal effect (EC50) in assay [1] (setting [3]) was determined as 84 nM; in assay [2] (setting [4]) it was 298 nM. Consider `Cc1nc(C)c(C(=O)Nc2ccc(F)c(-c3cn4cc(C(C)N(C)C)cnc4n3)c2)o1` (centres unmarked) [Compound 619], for which the EC50 in assay [1] (L. donovani axenic amastigotes) worked out at 6350 nM; in assay [2] (setting [5]) it was 929 nM. In the case of `CC(=O)N[C@@H]1CCN(C(=O)Nc2ccc(Cl)c(-c3cn4cc(NC(=O)OC(C)C)cnc4n3)c2)C1` [Compound 271], the figures for the EC50 in assay [1] (setting [3]) and in assay [2] (setting [4]) were more than 25000 nM and more than 50000 nM, respectively. As for `Cc1nc(C)c(C(=O)Nc2ccc(F)c(-c3cn4cc(CC(C)(C)C)cnc4n3)c2)o1` [Compound 591], the concentration for a half-maximal effect (EC50) in assay [1] (L. donovani axenic amastigotes) was 28 nM; in assay [2] (setting [5]), more than 50000 nM. In the case of `COCCOC(=O)Nc1cccc(-c2cn3cc(NC(=O)OC(C)C)cnc3n2)c1` [Compound 23], the concentration giving a half-maximal response (EC50) in assay [1] (setting [3]) worked out at 7300 nM; in assay [2] (setting [4]), 24700 nM. In the same order, the values of `CC(C)OC(=O)Nc1cnc2nc(-c3cc(NC(=O)c4cccn4C)ccc3F)cn2c1` [Compound 73] are 1290 nM and 15200 nM. With `CC(C)OC(=O)Nc1cnc2nc(-c3cc(NC(=O)c4ccno4)ccc3F)cn2c1` [Compound 72], the results for the EC50 in assay [1] (setting [3]) and in assay [2] (setting [4]) were 764 nM and 8390 nM, respectively.

`CN(CC(F)(F)F)C(=O)Nc1ccc(F)c(-c2cn3cc(-c4ccccc4)cnc3n2)c1` [Compound 325]: the EC50 stood at 154 nM in assay [1] (setting [3]) and 722 nM in assay [2] (setting [4]).

As to `CCNC(=O)Nc1ccc(Cl)c(-c2cn3cc(NC(=O)OC(C)C)cnc3n2)c1` [Compound 254], the EC50 in assay [1] (setting [3]) was 6900 nM; in assay [2] (setting [4]) it was more than 18300 nM. As for `CC(C)OC(=O)Nc1cnc2nc(-c3cc(NC(=O)c4cc5cccc(F)c5[nH]4)ccc3F)cn2c1` [Compound 93], the 50% effective concentration (EC50) in assay [1] (setting [3]) was more than 25000 nM; in assay [2] (setting [4]), more than 50000 nM. Regarding `Cc1nc(C)c(C(=O)Nc2ccc(F)c(-c3cn4cc(CN5CCOCC5)cnc4n3)c2)o1` [Compound 616, N-(4-fluoro-3-(6-(morpholinomethyl)imidazo[1,2-a]pyrimidin-2-yl)phenyl)-2,4-dimethyloxazole-5-carboxamide], the EC50 is 602 nM in assay [1] (L. donovani axenic amastigotes) and more than 50000 nM in assay [2] (setting [5]).

Consider `CON(C)C(=O)Nc1cccc(-c2cn3cc(NC(=O)OC(C)C)cnc3n2)c1` [Compound 14], for which the concentration giving a half-maximal response (EC50) in assay [2] (inhibition of proliferation) is 3200 nM. Regarding `CC(C)OC(=O)Nc1cnc2nc(-c3cc(NC(=O)N4CC(F)(F)C4)ccc3F)cn2c1` [Compound 289], the figures for the EC50 in assay [1] (setting [3]) and in assay [2] (setting [4]) were 141 nM and 321 nM, respectively. Regarding `Cc1nc(C)c(C(=O)Nc2ccc(F)c(-c3cn4cc(-c5ncccc5C(F)F)cnc4n3)c2)o1` [Compound 588], the figures for the EC50 in assay [1] (L. donovani axenic amastigotes) and in assay [2] (setting [5]) were 19 nM and 459 nM, respectively. Regarding `CC(C)OC(=O)Nc1ccc(-c2cnc3nc(-c4cc(NC(=O)N5CCCC5)ccc4F)cn3c2)cc1` [Compound 340], the 50% effective concentration (EC50) in assay [1] (setting [3]) was 707 nM; in assay [2] (setting [4]), 2120 nM.

As to `Cc1nc(C)c(C(=O)Nc2ccc(F)c(-c3cn4cc(C(C)N5CCOCC5)cnc4n3)c2)o1` (centres unmarked) [Compound 618, N-(4-fluoro-3-(6-(1-morpholinoethyl)imidazo[1,2-a]pyrimidin-2-yl)phenyl)-2,4-dimethyloxazole-5-carboxamide], the concentration giving a half-maximal response (EC50) in assay [1] (L. donovani axenic amastigotes) came to 903 nM; in assay [2] (setting [5]) it was 691 nM.

For the molecule `CC(C)OC(=O)Nc1cnc2nc(-c3cc(NC(=O)c4ccc[nH]4)ccc3F)cn2c1` [Compound 71], the EC50 in assay [1] (setting [3]) was 1890 nM; in assay [2] (setting [4]), 3230 nM.

For `CC(C)OC(=O)Nc1cnc2nc(-c3cc(NC(=O)N4CCCC4)ccc3Cl)c(F)n2c1` [Compound 15, isopropyl (2-(2-chloro-5-(pyrrolidine-1-carboxamido)phenyl)-3-fluoroimidazo[1,2-a]pyrimidin-6-yl)carbamate], the 50% effective concentration (EC50) amounted to 1500 nM in assay [1] (setting [3]) and 2950 nM in assay [2] (setting [4]). With `CC(C)OC(=O)Nc1cnc2nc(-c3cc(NC(=O)N(C)C)ccc3F)cn2c1` [Compound 219], the EC50 in assay [1] (setting [3]) was 752 nM; in assay [2] (setting [4]) it was 2150 nM. With `CNc1ccc(-c2cnc3nc(-c4cc(NC(=O)OCCOC)ccc4Cl)cn3c2)cc1` [Compound 36], the EC50 amounted to 560 nM in assay [1] (setting [3]) and 1280 nM in assay [2] (setting [4]). Take `Cc1nc(C)c(C(=O)Nc2ccc(F)c(-c3cn4cc(CC5CCC5)cnc4n3)c2)o1` [Compound 613, N-(3-(6-(cyclobutylmethyl)imidazo[1,2-a]pyrimidin-2-yl)-4-fluorophenyl)-2,4-dimethyloxazole-5-carboxamide]: the EC50 was 30 nM in assay [1] (L. donovani axenic amastigotes) and more than 50000 nM in assay [2] (setting [5]).

`CC(C)OC(=O)Nc1cnc2nc(-c3cc(NC(=O)N4CCC4C(=O)O)ccc3F)cn2c1` (centres unmarked) [Compound 295]: the EC50 in assay [1] (setting [3]) is more than 25000 nM; in assay [2] (setting [4]) it was more than 50000 nM. In the same order, the values of `O=C(Nc1ccc(Cl)c(-c2cn3cc(-c4ccccc4)cnc3n2)c1)N1CCCC1` [Compound 29] are 36 nM and 152 nM.

Regarding `Cc1nc(C)c(C(=O)Nc2ccc(F)c(-c3cn4cc(CN(C)C)cnc4n3)c2)o1` [Compound 617], the EC50 in assay [1] (L. donovani axenic amastigotes) was found to be 3440 nM.
